Results on 17 molecules are retold here after patent US20250127906A1, “SMALL-MOLECULE DEGRADERS OF CDK8 AND CDK19” (University of South Carolina, priority 2021, published 2025).

The structures appear in SMILES notation.

The assay addresses CDK8 (Homo sapiens, UniProt P49336). As to the kind of experiment: CDK8 degradation in HEK-293 cells (Western blot, normalized by GAPDH). The conditions noted are these: for % CDK8 remaining: HEK-293 cells, 24 hours, tested at 1 μM. Also on record: endogenous in cells; host or cells: HEK-293. In kind it is cell-based. As to the method:
Table 1 presents the structures of 35 different chimeras that have been synthesized, together with their effects (at 1 μM or 0.3 μM concentrations) on CDK8 degradation in HEK-293 cells. The synthesis schemes of all the compounds are described below. CDK8 degradation was measured by Western blot analysis of RIPA lysates of HEK-293cells treated with or without the test compound for 24 hours, using antibodies against CDK8 (Santa Cruz sc-1521) and housekeeping protein GAPDH (Santa Cruz sc-32233) (loading control) Protein bands on immunoblotted PVDF membranes were visualized with Western Lighting Plus ECL detection reagent (Perkin Elmer, Waltham, MA, USA) using ChemiDoc Touch™ (Bio-Rad). Image processing and densitometry analysis were performed using ImageLab software (Bio-Rad) to quantify the CDK8 protein levels (normalized by GAPDH) and evaluate the effects of compound treatment.
FIGS. 2F and 2G show the effects of different concentrations of potent Senexin C- and BI-1347-based PROTACs on CDK8 and CDK19 degradation in HEK-293cells. Based on these assays, we calculated DC50 values that correspond to PROTAC concentrations inducing degradation of CDK8 and CDK19 to the half of protein level in untreated cells. The corresponding CDK8 DC50 values were 46 nM for IA7843, 6.6 nM for IA7882 and 2.8 nM for IA7886, and CDK19 DC50 values were 1 μM for IA7843, 25 nM for IA7882 and 10 nM for IA7886.
(In general: In western blotting, separated proteins are transferred to a membrane and probed.)

Sequence of CDK8 (P49336 whole entry): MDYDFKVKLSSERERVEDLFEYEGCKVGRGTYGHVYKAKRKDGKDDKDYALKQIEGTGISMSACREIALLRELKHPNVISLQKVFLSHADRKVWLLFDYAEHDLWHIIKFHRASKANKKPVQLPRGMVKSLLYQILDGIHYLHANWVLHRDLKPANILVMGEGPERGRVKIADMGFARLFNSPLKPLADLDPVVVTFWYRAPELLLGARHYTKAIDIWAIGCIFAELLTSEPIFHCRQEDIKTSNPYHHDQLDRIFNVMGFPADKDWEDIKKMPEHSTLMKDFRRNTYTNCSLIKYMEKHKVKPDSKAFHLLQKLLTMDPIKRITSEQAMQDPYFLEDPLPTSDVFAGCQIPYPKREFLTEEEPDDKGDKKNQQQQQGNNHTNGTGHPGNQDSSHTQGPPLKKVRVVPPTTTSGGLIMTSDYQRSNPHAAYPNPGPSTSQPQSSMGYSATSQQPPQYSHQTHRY
Sequence of CDK8 (P24863 whole entry partner): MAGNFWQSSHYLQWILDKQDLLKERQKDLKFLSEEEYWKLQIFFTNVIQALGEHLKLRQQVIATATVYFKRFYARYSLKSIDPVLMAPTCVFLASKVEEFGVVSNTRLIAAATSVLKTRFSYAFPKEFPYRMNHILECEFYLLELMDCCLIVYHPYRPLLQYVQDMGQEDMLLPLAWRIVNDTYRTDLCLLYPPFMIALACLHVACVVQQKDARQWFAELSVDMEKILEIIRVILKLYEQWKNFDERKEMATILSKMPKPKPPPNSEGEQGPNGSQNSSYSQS

For the molecule `Cc1ncsc1-c1ccc(CNC(=O)[C@@H]2C[C@@H](O)CN2C(=O)[C@@H](NC(=O)CCCCCCCCC(=O)N2CCN(C(=O)c3ccc4cc(CCNc5ccnc6ccc(C#N)cc56)ccc4c3)CC2)C(C)(C)C)cc1` (racemic) [IA7862, rac-(2S,4R)-4-hydroxy-N-[[4-(4-methylthiazol-5-yl)phenyl]methyl]-1-[rac-(2S)-2-[[10-[4-[6-[2-[(6-cyano-4-quinolyl)amino]ethyl]naphthalene-2-carbonyl]piperazin-1-yl]-10-oxo-decanoyl]amino]-3,3-dimethyl-butanoyl]pyrrolidine-2-carboxamide], the “% CDK8 remaining” value worked out at 69%.

As for `CN(CCCNC(=O)CCOCCOCCOCCOCCNc1cccc2c1C(=O)N(C1CCC(=O)NC1=O)C2=O)C(=O)c1ccc(N2CCCN(c3ccnc4sc(C(N)=O)c(N)c34)CC2)cc1` (stereo not shown) [HP8553], the “% CDK8 remaining” value worked out at 74%.

Regarding `CN(CCCNC(=O)CCOCCOCCOCCNc1cccc2c1C(=O)N(C1CCC(=O)NC1=O)C2=O)C(=O)c1ccc(N2CCCN(c3ccnc4sc(C(N)=O)c(N)c34)CC2)cc1` (stereo not shown) [HP8575, 3-amino-4-[4-[4-[3-[3-[2-[2-[2-[[2-(2,6-dioxo-3-piperidyl)-1,3-dioxo-isoindolin-4-yl]amino]ethoxy]ethoxy]ethoxy]propanoylamino]propyl-methyl-carbamoyl]phenyl]-1,4-diazepan-1-yl]thieno[2,3-b]pyridine-2-carboxamide], the “% CDK8 remaining” value is 77%.

As to `CN(CCCNC(=O)CCOCCOCCNc1cccc2c1C(=O)N(C1CCC(=O)NC1=O)C2=O)C(=O)c1ccc(N2CCCN(c3ccnc4sc(C(N)=O)c(N)c34)CC2)cc1` (stereo not shown) [HP8578, 3-amino-4-[4-[4-[3-[3-[2-[2-[[2-(2,6-dioxo-3-piperidyl)-1,3-dioxo-isoindolin-4-yl]amino]ethoxy]ethoxy]propanoylamino]propyl-methyl-carbamoyl]phenyl]-1,4-diazepan-1-yl]thieno[2,3-b]pyridine-2-carboxamide], the “% CDK8 remaining” value is given as 82%.

As to `N#Cc1ccc2nccc(NCCc3ccc4cc(C(=O)N5CCN(CCCNC(=O)CCOCCOCCOCCOCCNc6cccc7c6C(=O)N(C6CCC(=O)NC6=O)C7=O)CC5)ccc4c3)c2c1` (stereo not shown) [HP8579], the “% CDK8 remaining” value is reported as 29%.

For the molecule `N#Cc1ccc2nccc(NCCc3ccc4cc(C(=O)N5CCN(C(=O)CCOCCOCCOCCOCCNc6cccc7c6C(=O)N(C6CCC(=O)NC6=O)C7=O)CC5)ccc4c3)c2c1` (stereo not shown) [HP8580, 4-[2-[6-[4-[3-[2-[2-[2-[2-[[2-(2,6-dioxo-3-piperidyl)-1,3-dioxo-isoindolin-4-yl]amino]ethoxy]ethoxy]ethoxy]ethoxy]propanoyl]piperazine-1-carbonyl]-2-naphthyl]ethylamino]quinoline-6-carbonitrile], the “% CDK8 remaining” value is on record as 20%. In addition, the “induction of CDK8 degradation by single agents” value (HEK-293, HP8580 200 nM and 1 μM, pomalidomide 5 μM, Senexin C 5 μM) is reported as “induced CDK8 degradation”. The “effect of co-treatment on HP8580-mediated CDK8 degradation” value (HEK-293, with MG132 5 μM, pomalidomide 5 μM or Senexin C 5 μM) was “reversed by proteasome inhibition with MG132 as well as by competition with pomalidomide or Senexin C”.

For the molecule `CN(CCCNC(=O)CCOCCOCCOCCOCCNc1cccc2c1C(=O)N(C1CCC(=O)NC1=O)C2=O)C(=O)c1ccc2cc(CCNc3ccnc4ccc(C#N)cc34)ccc2c1` (stereo not shown) [HP8581, 6-[2-[(6-cyano-4-quinolyl)amino]ethyl]-N-[3-[3-[2-[2-[2-[2-[[2-(2,6-dioxo-3-piperidyl)-1,3-dioxo-isoindolin-4-yl]amino]ethoxy]ethoxy]ethoxy]ethoxy]propanoylamino]propyl]-N-methyl-naphthalene-2-carboxamide], the “% CDK8 remaining” value was determined as 36%.

In the case of `N#Cc1ccc2nccc(NCCc3ccc4cc(C(=O)N5CCN(C(=O)CCOCCOCCOCCNc6cccc7c6C(=O)N(C6CCC(=O)NC6=O)C7=O)CC5)ccc4c3)c2c1` (stereo not shown) [HV5957, 4-[2-[6-[4-[3-[2-[2-[2-[[2-(2,6-dioxo-3-piperidyl)-1,3-dioxo-isoindolin-4-yl]amino]ethoxy]ethoxy]ethoxy]propanoyl]piperazine-1-carbonyl]-2-naphthyl]ethylamino]quinoline-6-carbonitrile], the “% CDK8 remaining” value is reported as 21%.

Regarding `N#Cc1ccc2nccc(NCCc3ccc4cc(C(=O)N5CCN(C(=O)CCOCCOCCNc6cccc7c6C(=O)N(C6CCC(=O)NC6=O)C7=O)CC5)ccc4c3)c2c1` (stereo not shown) [HV5958, 4-[2-[6-[4-[3-[2-[2-[[2-(2,6-dioxo-3-piperidyl)-1,3-dioxo-isoindolin-4-yl]amino]ethoxy]ethoxy]propanoyl]piperazine-1-carbonyl]-2-naphthyl]ethylamino]quinoline-6-carbonitrile], the “% CDK8 remaining” value worked out at 27%.

On to `CN1C(=O)CCC(N2C(=O)c3cccc(NCCOCCOCCOCCOCCC(=O)N4CCN(C(=O)c5ccc6cc(CCNc7ccnc8ccc(C#N)cc78)ccc6c5)CC4)c3C2=O)C1=O` (stereo not shown) [IA7803, 4-[2-[6-[4-[3-[2-[2-[2-[2-[[2-(1-methyl-2,6-dioxo-3-piperidyl)-1,3-dioxo-isoindolin-4-yl]amino]ethoxy]ethoxy]ethoxy]ethoxy]propanoyl]piperazine-1-carbonyl]-2-naphthyl]ethylamino]quinoline-6-carbonitrile], for which the “% CDK8 remaining” value came out at 100%.

Turning to `Cc1ncsc1-c1ccc(CNC(=O)[C@@H]2C[C@@H](O)CN2C(=O)[C@@H](NC(=O)CCOCCOCCOCCOCCC(=O)N2CCN(C(=O)c3ccc4cc(CCNc5ccnc6ccc(C#N)cc56)ccc4c3)CC2)C(C)(C)C)cc1` [IA7807, (2S,4R)-1-((S)-2-(tert-butyl)-19-(4-(6-(2-((6-cyanoquinolin-4-yl)amino)ethyl)-2-naphthoyl)piperazin-1-yl)-4,19-dioxo-7,10,13,16-tetraoxa-3-azanonadecanoyl)-4-hydroxy-N-(4-(4-methylthiazol-5-yl)benzyl) pyrrolidine-2-carboxamide], the “% CDK8 remaining” value is 100%.

As for `N#Cc1ccc2nccc(NCCc3ccc4cc(C(=O)N5CCN(C(=O)CCOCCOCCOCCOCCOCCNc6cccc7c6C(=O)N(C6CCC(=O)NC6=O)C7=O)CC5)ccc4c3)c2c1` (stereo not shown) [IA7812, 4-[2-[6-[4-[3-[2-[2-[2-[2-[2-[[2-(2,6-dioxo-3-piperidyl)-1,3-dioxo-isoindolin-4-yl]amino]ethoxy]ethoxy]ethoxy]ethoxy]ethoxy]propanoyl]piperazine-1-carbonyl]-2-naphthyl]ethylamino]quinoline-6-carbonitrile], the “% CDK8 remaining” value worked out at 29%.

Take `N#Cc1ccc2nccc(NCCc3ccc4cc(C(=O)N5CCN(C(=O)CCOCCOCCOCCOCCOCCOCCNc6cccc7c6C(=O)N(C6CCC(=O)NC6=O)C7=O)CC5)ccc4c3)c2c1` (stereo not shown) [IA7813, 4-[2-[6-[4-[3-[2-[2-[2-[2-[2-[2-[[2-(2,6-dioxo-3-piperidyl)-1,3-dioxo-isoindolin-4-yl]amino]ethoxy]ethoxy]ethoxy]ethoxy]ethoxy]ethoxy]propanoyl]piperazine-1-carbonyl]-2-naphthyl]ethylamino]quinoline-6-carbonitrile]: the “% CDK8 remaining” value is 28%.

With `CN(CCCNC(=O)CCOCCOCCOCCOCCOCCOCCNc1cccc2c1C(=O)N(C1CCC(=O)NC1=O)C2=O)C(=O)c1ccc(N2CCCN(c3ccnc4sc(C(N)=O)c(N)c34)CC2)cc1` (stereo not shown) [IA7814, 3-amino-4-[4-[4-[3-[3-[2-[2-[2-[2-[2-[2-[[2-(2,6-dioxo-3-piperidyl)-1,3-dioxo-isoindolin-4-yl]amino]ethoxy]ethoxy]ethoxy]ethoxy]ethoxy]ethoxy]propanoylamino]propyl-methyl-carbamoyl]phenyl]-1,4-diazepan-1-yl]thieno[2,3-b]pyridine-2-carboxamide], the “% CDK8 remaining” value was found to be 59%.

`N#Cc1ccc2nccc(NCCc3ccc4cc(C(=O)N5CCN(C(=O)CCNC(=O)CCOCCOCCOCCNc6cccc7c6C(=O)N(C6CCC(=O)NC6=O)C7=O)CC5)ccc4c3)c2c1` (stereo not shown) [IA7819, N-[3-[4-[6-[2-[(6-cyano-4-quinolyl)amino]ethyl]naphthalene-2-carbonyl]piperazin-1-yl]-3-oxo-propyl]-3-[2-[2-[2-[[2-(2,6-dioxo-3-piperidyl)-1,3-dioxo-isoindolin-4-yl]amino]ethoxy]ethoxy]ethoxy]propanamide]: the “% CDK8 remaining” value is recorded as 66%.

For `N#Cc1ccc2nccc(NCCc3ccc4cc(C(=O)N5CCN(C(=O)CCNC(=O)CCOCCOCCOCCOCCNc6cccc7c6C(=O)N(C6CCC(=O)NC6=O)C7=O)CC5)ccc4c3)c2c1` (stereo not shown) [IA7822, N-[3-[4-[6-[2-[(6-cyano-4-quinolyl)amino]ethyl]naphthalene-2-carbonyl]piperazin-1-yl]-3-oxo-propyl]-3-[2-[2-[2-[2-[[2-(2,6-dioxo-3-piperidyl)-1,3-dioxo-isoindolin-4-yl]amino]ethoxy]ethoxy]ethoxy]ethoxy]propanamide], the “% CDK8 remaining” value was 65%.

As for `N#Cc1ccc2nccc(NCCc3ccc4cc(C(=O)N5CCN(C(=O)CCOCCOCCOCCNC(=O)CCNc6cccc7c6C(=O)N(C6CCC(=O)NC6=O)C7=O)CC5)ccc4c3)c2c1` (stereo not shown) [IA7830, N-[2-[2-[2-[3-[4-[6-[2-[(6-cyano-4-quinolyl)amino]ethyl]naphthalene-2-carbonyl]piperazin-1-yl]-3-oxo-propoxy]ethoxy]ethoxy]ethyl]-3-[[2-(2,6-dioxo-3-piperidyl)-1,3-dioxo-isoindolin-4-yl]amino]propanamide], the “% CDK8 remaining” value is 65%.
